In ChEMBL document CHEMBL1151264, “Investigation of brominated tryptophan alkaloids from two thorectidae sponges: Thorectandra and Smenospongia” (2005):
Converted amounts (≈) assume the structure as drawn.

Tested on: Staphylococcus epidermidis
Test: Antibacterial activity against Staphylococcus epidermidis ATCC 12228
Assay type: functional

SMILES | MIC
COC(=O)Cc1c[nH]c2cc(Br)ccc12 | 6.25 µg/mL (≈ 23.3 µM)
COC(=O)c1c[nH]c2cc(Br)ccc12 | 50 µg/mL (≈ 197 µM)
COC1(Cc2c[nH]c3cc(Br)ccc23)C(=O)N(C)C(=N)N1C (stereo not given) | 100 µg/mL (≈ 274 µM)
CCOC1(Cc2c[nH]c3cc(Br)ccc23)C(=O)N(C)C(=N)N1C (stereo not given) | 12.5 µg/mL (≈ 33 µM)
CN(C)[C@@H](Cc1c[nH]c2ccc(Br)cc12)C(=O)O | 25 µg/mL (≈ 80.3 µM)
CN1C(=N)N(C)C(Cc2c[nH]c3cc(Br)ccc23)C1=O (stereo not given) | 25 µg/mL (≈ 74.6 µM)
C[N+](C)(C)[C@@H](Cc1c[nH]c2ccc(Br)cc12)C(=O)O | 100 µg/mL
CN1C(=N)N(C)C(O)(Cc2c[nH]c3cc(Br)ccc23)C1=O (stereo not given) | 12.5 µg/mL (≈ 35.6 µM)
CN1C(=N)N(C)/C(=C/c2c[nH]c3ccccc23)C1=O [APLYSINOPSIN] | 25 µg/mL (≈ 98.3 µM)
CN[C@H](CC(C)C)C(=O)N[C@H]1C(=O)N[C@@H](CC(N)=O)C(=O)N[C@H]2C(=O)N[C@H]3C(=O)N[C@H](C(=O)N[C@H](C(=O)O)c4cc(O)cc(O)c4-c4cc3ccc4O)[C@H](O)c3ccc(c(Cl)c3)Oc3cc2cc(c3O[C@@H]2O[C@H](CO)[C@@H](O)[C@H](O)[C@H]2O[C@H]2C[C@](C)(N)[C@H](O)[C@H](C)O2)Oc2ccc(cc2Cl)[C@H]1O [VANCOMYCIN] | 0.625 µg/mL (≈ 0.431 µM)
